Results on two compounds are retold here after patent publication US4963581A, “Naphthopyran derivatives and use thereof” (Takeda Chemical Industries, Ltd., priority 1988, dated 1990).

Each structure is given as a SMILES string.

In series [1] the test system is estrogen synthesis. As to the kind of experiment: Estrogen synthesis inhibition in rats (PMSG-stimulated). The series is classed as in vivo, young SD rats. The note with it: Test I, 100 mg/kg/day s.c., 4 days, Mean ± SD.
Series [2] concerns estrogen synthesis. The description is as above. The series is classed as in vivo, young SD rats. The note with it: 100 mg/kg/day s.c., 4 days, Mean ± SD. As to the method:
Groups of five young SD rats ([…], 19 days old) were used. Test groups were administered subcutaneously with the test compounds suspended in 0.2% gum arabic-containing physiological saline in a dose of 25 mg/kg or 50 mg/kg at 24-hour intervals for consecutive 4 days. Non-test groups (control groups […]) were administered with 0.2 ml of 0.2% gum arabic-containing physiological saline. On the third day after initiation of the test, a single dose of pregnant mare serum gonadotropin (PMSG) was administered subcutaneously in a dose of 10 U/rat to the test groups and to the control group 2, following the administration of the test compounds. […] The plasma samples thus obtained were subjected to plasma estradiol-17B level determination by radioimmunoassay. The uterus and ovaries were excised from each rat and, after removal of superfluous connective tissues, weighed. The results thus obtained are shown in Table 2.4-Hydroxyandrostenedione (4-OHA) was used as a reference compound for the pharmacological effect evaluation.
*P < 0.05, **P < 0.02, ***P < 0.01, ****<0.001 against PMSG group

The test system of series [3] is various enzymes involved in the biosynthesis of steroid hormones. The note with it: background statement in words; cited from earlier work.

Regarding `C[C@]12CCC(=O)C(O)=C1CC[C@@H]1[C@@H]2CC[C@]2(C)C(=O)CC[C@@H]12` [Compound 4-OHA, 4-Hydroxyandrostenedione, reference compound], the Body weight gain came out at 25.0 ± 1.6 g in series [1], 22.8 ± 1.5 g in series [2] (Test II) and 24.8 ± 0.8 g in series [2] (Test III). Further, the “Tissue weight, Ovaries” value in series [2] (Test I) is 24.3 ± 4.5 mg; in series [2] (Test II), 22.3 ± 3.3 mg; in series [2] (Test III) it was 26.3 ± 1.7 mg. The “Tissue weight, Uterus” value came to 60.6 ± 9.0 mg in series [2] (Test I), 61.5 ± 8.2 mg in series [2] (Test II) and 71.9 ± 8.6 mg in series [2] (Test III). Moreover, the “Plasma estradiol-17β level” value in series [2] (Test I, PMSG control 568.6 ± 69.7) was found to be 115.5 ± 47.4 pg/mL; in series [2] (Test II, PMSG control 240.0 ± 34.9), 36.1 ± 33.0 pg/mL; in series [2] (Test III, PMSG control 327.9 ± 126.6) it was 52.3 ± 21.7 pg/mL.

Turning to `CCC1(c2ccc(N)cc2)CCC(=O)NC1=O` (stereo not shown) [Aminoglutethimide], the “inhibition of various enzymes involved in the biosynthesis of steroid hormones” value in series [3] is “inhibits various enzymes involved in the biosynthesis of steroid hormones”.
